In paper PMC8715118, “Assessing potentiation of the (α4)3(β2)2 nicotinic acetylcholine receptor by the allosteric agonist CMPI” (The Journal of Biological Chemistry, 2021):
Where “and” joins values, the source holds several entries; their conditions need not be identical. Equal entries are not always repeated. Where two headings read alike, the source gives them in different places.

Experiments:
(α4E66I)3(β2)2 nAChR = target: T1, (α4E66I)3(β2)2 nAChR (Homo sapiens, UniProt P17787+P43681, E92I); test: Two-electrode voltage-clamp, oocytes expressing (α4E66I)3(β2)2 nAChR; type: cell-based
T1 construct: expressed in transfected cells; host or cells: Xenopus laevis oocytes injected with cRNA, 8:1 α4:β2
T1 sequence (P43681 27-627 E92I): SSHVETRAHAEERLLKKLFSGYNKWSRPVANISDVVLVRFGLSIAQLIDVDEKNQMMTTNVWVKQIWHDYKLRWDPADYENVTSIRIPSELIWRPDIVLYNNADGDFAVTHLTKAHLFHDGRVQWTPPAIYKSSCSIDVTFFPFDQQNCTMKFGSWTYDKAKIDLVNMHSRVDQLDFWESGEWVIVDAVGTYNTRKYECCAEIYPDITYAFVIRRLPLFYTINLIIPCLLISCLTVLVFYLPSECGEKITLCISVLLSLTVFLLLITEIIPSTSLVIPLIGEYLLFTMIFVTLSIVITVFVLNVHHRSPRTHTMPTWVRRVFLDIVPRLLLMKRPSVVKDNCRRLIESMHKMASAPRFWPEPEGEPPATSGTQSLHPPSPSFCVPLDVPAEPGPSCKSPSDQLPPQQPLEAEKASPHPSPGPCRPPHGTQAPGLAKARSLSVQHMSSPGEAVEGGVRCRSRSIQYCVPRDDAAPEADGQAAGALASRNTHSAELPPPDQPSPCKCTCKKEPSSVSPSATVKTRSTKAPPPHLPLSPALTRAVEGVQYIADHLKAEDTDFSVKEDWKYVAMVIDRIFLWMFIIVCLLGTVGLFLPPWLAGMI
T1 sequence (P17787 26-502): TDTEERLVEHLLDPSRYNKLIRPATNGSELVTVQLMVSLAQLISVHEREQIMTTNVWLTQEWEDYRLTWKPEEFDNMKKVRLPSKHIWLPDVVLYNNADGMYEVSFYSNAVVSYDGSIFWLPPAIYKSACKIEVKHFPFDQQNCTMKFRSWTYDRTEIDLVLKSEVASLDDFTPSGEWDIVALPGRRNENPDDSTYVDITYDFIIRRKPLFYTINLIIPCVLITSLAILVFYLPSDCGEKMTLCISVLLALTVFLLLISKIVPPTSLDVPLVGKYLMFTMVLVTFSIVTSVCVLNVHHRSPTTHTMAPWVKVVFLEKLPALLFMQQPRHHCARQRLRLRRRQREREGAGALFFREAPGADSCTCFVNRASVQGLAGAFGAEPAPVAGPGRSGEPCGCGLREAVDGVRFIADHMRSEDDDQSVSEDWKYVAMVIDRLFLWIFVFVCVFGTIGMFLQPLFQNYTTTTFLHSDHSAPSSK
Procedure: (§1) Oocytes-positive female Xenopus laevis were purchased from NASCO, and all procedures were performed according to an animal use protocol approved by the Institutional Animals Care and Use Committee of The University of Texas Health Science Center at Tyler. Ovarian lobules were surgically harvested, treated with collagenase type 2, and Stage V and VI oocytes were visually selected and maintained at 18 °C in modified ND96-gentamicin buffer (96 mM NaCl, 2 mM KCl, 1.8 mM CaCl2, 1 mM MgCl2, 5 mM Hepes, and 50 μg/ml gentamicin, pH 7.6).
(§2) pSP64 Poly(A) plasmids with cDNA encoding for human α4 or β2 nAChR subunit were used to prepare cRNA transcripts suitable for oocyte expression. The plasmids were linearized with AseI (hα4) and PvuII (hβ2), then cRNA transcripts were prepared in vitro using mMESSAGE mMACHINE high yield-capped RNA transcription kits (Ambion, Thermo Fisher Scientific), purified on NucAway Spin column (Invitrogen, Thermo Fisher Scientific), and stored at −80 °C until used. Point mutations within the plasmid encoding the α4 nAChR subunit were introduced using QuikChange II Site-Directed Mutagenesis Kit (Agilent Technologies), as described previously ([28]). To generate amino acid substitutions (K64T, E66I, H116V, H116L, and H116A), two custom-designed complementary oligos containing the desired mutation were used (Integrated DNA Technologies). The forward primers were as the following with the codon for mutated amino acids are underlined and nucleotide(s) changes are bolded and italicized:
(§3) The oocytes were injected with 10 to 50 ng of a cRNA mix containing α4 (WT or mutant) and β2 RNAs at ratios of 8:1(α4:β) or 1:8 (α4:β2) to bias expression toward (α4)3(β2)2 or (α4)2(β2)3 nAChRs, respectively. The injection of oocytes with RNAs mixture containing four folds or higher α4 RNA than β2 RNA have been established to express receptor population that is made up of three α4 and two β2 subunits ([9], [12], [28], [43], [44], [45]).
(§4) 24 to 72 h after cRNA injection, Xenopus oocytes were placed in a custom-made recording chamber that is connected to an eight-channel automated perfusion system (Warner Instruments) and perfused with recording buffer (100 mM NaCl, 2 mM KCl, 1 mM CaCl2, 0.8 mM MgCl2, 1 mM EGTA, and 10 mM Hepes, pH 7.5). Unless otherwise specified in figure legends, each recording run included several drug applications (10 s of an agonist with or without CMPI or NS9283) separated by 3 to 4 min buffer wash intervals. Between recording runs, the oocytes were washed with recording buffer for at last 5 min. […] The currents were digitized using Digidata 1550A (Axon Instruments, Molecular Devices), and the peak currents were quantified using pCLAMP 10 (Axon Instruments), then normalized and analyzed using Excel 2010 (Microsoft) and SigmaPlot 11.0 (Systat Software). […]

(α4K64T)3(β2)2 nAChR = target: T2, (α4K64T)3(β2)2 nAChR (Homo sapiens, UniProt P17787+P43681, K90T); test: Two-electrode voltage-clamp, oocytes expressing (α4K64T)3(β2)2 nAChR; type: cell-based
T2 construct: expressed in transfected cells; host or cells: Xenopus laevis oocytes injected with cRNA, 8:1 α4:β2
T2 sequence (P43681 27-627 K90T): as the sequence (P43681 27-627 E92I) above, with K64T, I66E counted along it
T2 sequence (P17787 26-502): as the sequence (P17787 26-502) above
Procedure: as §1, §2, §3, §4

(α4H116A)3(β2)2 nAChR = target: T3, (α4H116A)3(β2)2 nAChR (Homo sapiens, UniProt P17787+P43681, H142A); test: Mechanistic (Monod-Wyman-Changeux two-state model) analysis of current responses, (α4H116A)3(β2)2 nAChR; type: cell-based; conditions: α4:α4 site; for Kd: read-out: KR,CMPI
T3 construct: expressed in transfected cells; host or cells: Xenopus laevis oocytes injected with cRNA, 8:1 α4:β2
T3 sequence (P43681 27-627 H142A): as the sequence (P43681 27-627 E92I) above, with I66E, H116A counted along it
T3 sequence (P17787 26-502): as the sequence (P17787 26-502) above
Procedure: (§5) Further analysis of electrophysiological data was conducted in the framework of the two-state concerted transition model, adapted from the MWC cyclic model originally used to describe enzyme function ([31], [32], [33]). The raw peak amplitudes of current responses were converted to units of probability of being in the active state (PA).
(§6) The numbers of α4:β2 and α4:α4 binding sites (Nα4:β2 and Nα4:α4) were constrained to 2 and 1, respectively.
(§7) The concentration-response curve for TC-2559 was fitted to the following equation:(3) PA=1/1+L[1+[TC-2559]/KR,TC-2559,α4:β2/1+[TC-2559]/(KR,TC-2559,α4:β2cTC-2559,α4:β2)]^Nα4:β2
(§8) The concentration-response data were analyzed using Equation 3, with the value of L modified to reflect receptor activation by TC-2559, and the affinity and efficacy terms in the equation reflecting the values for CMPI. The number of binding sites for CMPI in Equation 3 was constrained to 1.
(§9) Curve fitting was done using Origin 2020 (OriginLab Corp). The results are reported as best-fit parameter ±SD of the fit. All data are included in the analysis.

(α4)3(β2)2 nAChR [1] = target: T4, (α4)3(β2)2 nAChR (Homo sapiens, UniProt P17787+P43681); conditions: cited from earlier work
T4 construct: expressed in transfected cells; host or cells: Xenopus laevis oocytes injected with cRNA, 8:1 α4:β2
T4 sequence (P43681 27-627): as the sequence (P43681 27-627 E92I) above, with I66E counted along it
T4 sequence (P17787 26-502): as the sequence (P17787 26-502) above

(α4)3(β2)2 nAChR [2] = target: T4, (α4)3(β2)2 nAChR; test: Mechanistic (Monod-Wyman-Changeux two-state model) analysis of current responses, WT (α4)3(β2)2 nAChR; type: cell-based
Source text: To gain mechanistic insight into receptor activation in the presence of CMPI, we analyzed the currents in the framework of a cyclic two-state (resting and active) allosteric activation model ([31], [32], [33]). In this model, channel opening is mediated by stabilization of the active state by an agonist that, by definition, has higher affinity to the active than resting state.
We commenced by converting the raw amplitudes of current responses to units of probability of being in the active state (PA units).
as §5, §6, §7, §8, §9

[3] = background of activity elicited by ACh
[4] = background of activity elicited by TC-2559

Cc1c(-c2cc(-c3ccccc3Cl)no2)cnn1C1CCNCC1 [CMPI, 3-(2-chlorophenyl)-5-(5-methyl-1-(piperidin-4-yl)-1H-pyrrazol-4-yl)isoxazole]
potentiation fold (Ave ± SD), agonist + 1 μM modulator / agonist alone ((α4E66I)3(β2)2 nAChR; ACh (1 mM)): 0.83 ± 0.10 | potentiation fold (Ave ± SD), agonist + 1 μM modulator / agonist alone ((α4E66I)3(β2)2 nAChR; TC 2559 (30 μM)): 0.99 ± 0.15 | potentiation fold (Ave ± SD), agonist + 1 μM modulator / agonist alone ((α4K64T)3(β2)2 nAChR; ACh (1 mM)): 0.91 ± 0.08 | potentiation fold (Ave ± SD), agonist + 1 μM modulator / agonist alone ((α4K64T)3(β2)2 nAChR; TC 2559 (30 μM)): 1.17 ± 0.21 | cCMPI ((α4H116A)3(β2)2 nAChR; [3]): 0.082 ± 0.007 | Kd ((α4H116A)3(β2)2 nAChR; [3]): 440 ± 120 nM | cCMPI ((α4H116A)3(β2)2 nAChR; [4]): 0.099 ± 0.009 | Kd ((α4H116A)3(β2)2 nAChR; [4]): 230 ± 80 nM | left-shift of the ACh concentration-response curve ((α4)3(β2)2 nAChR [1]; CMPI at 1 μM): ~100 fold | direct activation of the α4β2 receptor ((α4)3(β2)2 nAChR [1]): very weak direct activator | current responses to EC10 (10 μM) ACh with coapplied CMPI, % of control ((α4)3(β2)2 nAChR [1]; maximal potentiation, 10 μM ACh): 386 ± 15% | EC50 ((α4)3(β2)2 nAChR [1]; potentiation of 10 μM ACh response): 180 ± 30 nM | free energy change toward stabilization of the active state ((α4)3(β2)2 nAChR [2]; CMPI at the α4:α4 interface, from 1 μM TC-2559 background dataset): -1.42 kcal/mol | ΔGgating ((α4)3(β2)2 nAChR [2]; CMPI at the α4:α4 site, from mean parameters): -1.35 kcal/mol | cCMPI,α4:α4 ((α4)3(β2)2 nAChR [2]; background of 1 μM TC-2559): 0.090 ± 0.004 | Kd ((α4)3(β2)2 nAChR [2]; background of 1 μM TC-2559, 0.01 to 3 μM CMPI, read-out: KR,CMPI,α4:α4): 170 ± 30 nM | cCMPI,α4:α4 ((α4)3(β2)2 nAChR [2]; background of 1 μM cytisine): 0.074 ± 0.009 | Kd ((α4)3(β2)2 nAChR [2]; background of 1 μM cytisine, read-out: KR,CMPI,α4:α4): 430 ± 170 nM | cCMPI,α4:α4 ((α4)3(β2)2 nAChR [2]; background of 1 μM nicotine): 0.065 ± 0.007 | Kd ((α4)3(β2)2 nAChR [2]; background of 1 μM nicotine, read-out: KR,CMPI,α4:α4): 400 ± 100 nM | cCMPI,α4:α4 ((α4)3(β2)2 nAChR [2]; background of 10 μM ACh): 0.145 ± 0.008 | Kd ((α4)3(β2)2 nAChR [2]; background of 10 μM ACh, read-out: KR,CMPI,α4:α4): 290 ± 60 nM | cCMPI,α4:α4 ((α4)3(β2)2 nAChR [2]; background of 10 μM TC-2559): 0.129 ± 0.009 | Kd ((α4)3(β2)2 nAChR [2]; background of 10 μM TC-2559, read-out: KR,CMPI,α4:α4): 90 ± 20 nM | Kd ((α4)3(β2)2 nAChR [2]; five approaches, read-out: KR,CMPI,α4:α4, range of estimates): 90 to 430 nM | mean cCMPI,α4:α4 ((α4)3(β2)2 nAChR [2]; mean of the five approaches): 0.101 ± 0.035 and 0.101 | Kd ((α4)3(β2)2 nAChR [2]; mean of the five approaches, read-out: mean KR,CMPI,α4:α4): 280 ± 150 nM
